Experimental data published in patent US9365572B2, “PI3K and/or mTOR inhibitor” (XUANZHU PHARMA CO., LTD., priority 2012, dated 2016).

Experiments:
BRAF V600E = BRAF V600E (Homo sapiens (Human), UniProt P15056, V600E); experiment: Kinase selectivity, Lanthascreen analysis method; assay type: biochemical
Adenosine A2A = Adenosine A2A (Homo sapiens (Human), UniProt P29274); experiment: Radioligand binding assay No. 200610; conditions: test substance 10 μM, read-out: Inhibitory rate (%), Adenosine A2A
Adrenergic α2A = Adrenergic α2A (Homo sapiens (Human), UniProt P08913); experiment: Radioligand binding assay No. 203620; conditions: test substance 10 μM, read-out: Inhibitory rate (%), Adrenergic α2A
Adrenergic β2 = Adrenergic β2 (Homo sapiens (Human), UniProt P07550); experiment: Radioligand binding assay No. 204110; conditions: test substance 10 μM, read-out: Inhibitory rate (%), Adrenergic β2
Cannabinoid CB1 = Cannabinoid CB1 (Homo sapiens (Human), UniProt P21554); experiment: Radioligand binding assay No. 217030; conditions: test substance 10 μM, read-out: Inhibitory rate (%), Cannabinoid CB1
Endothelin ETB = Endothelin ETB (Homo sapiens (Human), UniProt P24530); experiment: Radioligand binding assay No. 224110; conditions: test substance 10 μM, read-out: Inhibitory rate (%), Endothelin ETB
GABAB1A = GABAB1A (Homo sapiens (Human), UniProt Q9UBS5); experiment: Radioligand binding assay No. 228610; conditions: test substance 10 μM, read-out: Inhibitory rate (%), GABAB1A
Glucocorticoid = Glucocorticoid (Homo sapiens (Human), UniProt P04150); experiment: Radioligand binding assay No. 232030; conditions: test substance 10 μM, read-out: Inhibitory rate (%), Glucocorticoid
Muscarinic M3 = Muscarinic M3 (Homo sapiens (Human), UniProt P20309); experiment: Radioligand binding assay No. 252810; conditions: test substance 10 μM, read-out: Inhibitory rate (%), Muscarinic M3
Potassium Channel [KATP] = experiment: Radioligand binding assay No. 265600; conditions: test substance 10 μM; Human
[1] = target: Transporter, Serotonin (5-Hydroxytryptamine) (SERT) (Homo sapiens (Human), UniProt P31645); experiment: Radioligand binding assay No. 274030; conditions: test substance 10 μM, read-out: Inhibitory rate (%), Transporter, Serotonin (5-Hydroxytryptamine) (SERT)
mTOR = mTOR (Homo sapiens (Human), UniProt P42345); experiment: mTOR enzymatic assay; assay type: biochemical; conditions: read-out: In vitro enzymatic activity (IC50) mTOR
Procedure: Assay 1-2: In Vitro Enzymatic Inhibitory Activity of the Present Compound
1. Preparation of Agents:
• 1.1 1-fold kinase buffer: 50 mM HEPES, pH 7.5, 10 mM MgCl2, 1 mM EGTA, 3 mM MnCl2, 0.01% Tween-20, 2 mM DTT; • 1.2 4-fold kinase solution: mTOR kinase was added to 1-fold kinase buffer to form 4-fold kinase solution with a final concentration of 2.5 nM; • 1.3 2-fold substrate and ATP solution: the substrate 4EBP1 and ATP were added to 1-fold kinase buffer to form 2-fold substrate solution with final concentration of 50 nM of 4EBP1 and 10.8 μM of ATP; • 1.4 4-fold test substance solutions: 100-fold test substance solutions in different gradient concentrations were formulated with 100% DMSO, and diluted by 25 folds with 1-fold kinase buffer to form 4-fold test substance solutions in different gradient concentrations. • 1.5 Preparation of detection solution: a detection solution containing 2-fold final concentrations of EDTA and 4EBP1 phosphorylated antibody was formulated, wherein the final concentration for EDTA was 8 mM, and the final concentration for the 4EBP phosphorylated antibody was 2 nM. 2. Procedure • 2.1 To each well of a 384-well plate was added 2.5 μL of the 4-fold test substance solutions in gradient concentrations. The replication was made. • 2.2 To each well was added 2.5 μL of 4-fold kinase solution, and then the plate was incubated for 10 mins; • 2.3 Then to each well was added 5 μL/of 2-fold substrate and ATP solution, and then the plate was incubated at room temperature for 1 hour; • 2.4 Finally, 10 μL of the detection solution was added to terminate the reaction. After 60 mins, the data Lance signal ([…]) was read from Envision. 3 Data treatment Inhibition rate (%)=[…] • wherein: • maximum refers to the reading at the DMSO control well. • minimum refers to the reading at the control well without kinase, • The data was input into Graphpad Prism 5.0 to plot and obtain the curve and IC50 value. PI3Kα Enzymatic Assay 1. […] After 15 mins, the data Lance signal ([…]) was read from Envision. 3 Data treatment Inhibition rate (%)=100−(sample value−minimum)/(maximum−minimum)×100 • wherein: • maximum refers to the reading at the control well without kinase, • minimum refers to the reading at the DMSO control well, • The data was input into Graphpad Prism 5.0 to plot and obtain the curve and IC50 value. […]

Sequence of Adenosine A2A (P29274 whole entry): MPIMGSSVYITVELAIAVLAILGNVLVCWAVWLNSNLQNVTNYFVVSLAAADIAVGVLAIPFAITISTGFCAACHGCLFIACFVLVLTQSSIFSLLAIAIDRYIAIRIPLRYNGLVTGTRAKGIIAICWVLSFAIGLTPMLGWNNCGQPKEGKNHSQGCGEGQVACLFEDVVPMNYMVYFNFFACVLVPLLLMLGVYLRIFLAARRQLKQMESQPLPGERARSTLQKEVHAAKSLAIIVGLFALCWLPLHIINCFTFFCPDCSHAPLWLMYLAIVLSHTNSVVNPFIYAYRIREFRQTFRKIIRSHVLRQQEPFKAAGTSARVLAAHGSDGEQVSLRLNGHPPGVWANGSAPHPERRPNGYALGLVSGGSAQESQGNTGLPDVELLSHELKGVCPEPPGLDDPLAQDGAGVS
Sequence of BRAF V600E (P15056 whole entry V600E): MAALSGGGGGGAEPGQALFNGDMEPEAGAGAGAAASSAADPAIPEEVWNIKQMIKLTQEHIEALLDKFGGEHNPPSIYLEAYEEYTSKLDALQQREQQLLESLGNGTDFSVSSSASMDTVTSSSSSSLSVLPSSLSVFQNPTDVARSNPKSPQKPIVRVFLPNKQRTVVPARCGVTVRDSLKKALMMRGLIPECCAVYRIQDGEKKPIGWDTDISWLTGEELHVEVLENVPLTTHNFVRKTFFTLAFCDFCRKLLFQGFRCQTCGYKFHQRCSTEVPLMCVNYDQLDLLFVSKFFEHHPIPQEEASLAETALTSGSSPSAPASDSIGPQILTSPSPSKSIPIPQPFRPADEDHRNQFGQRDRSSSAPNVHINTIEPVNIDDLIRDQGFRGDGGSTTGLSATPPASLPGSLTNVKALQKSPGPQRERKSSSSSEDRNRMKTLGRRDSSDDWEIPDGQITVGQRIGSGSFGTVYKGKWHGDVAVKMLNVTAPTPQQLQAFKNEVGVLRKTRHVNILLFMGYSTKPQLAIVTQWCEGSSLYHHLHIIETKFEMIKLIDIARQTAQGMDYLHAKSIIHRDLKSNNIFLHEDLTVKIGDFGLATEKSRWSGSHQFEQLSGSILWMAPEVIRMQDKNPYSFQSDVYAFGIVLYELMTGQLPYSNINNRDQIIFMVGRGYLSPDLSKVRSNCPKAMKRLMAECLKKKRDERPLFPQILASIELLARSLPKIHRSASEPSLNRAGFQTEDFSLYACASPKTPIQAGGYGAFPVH
Sequence of Transporter, Serotonin (5-Hydroxytryptamine) (SERT) (P31645 whole entry): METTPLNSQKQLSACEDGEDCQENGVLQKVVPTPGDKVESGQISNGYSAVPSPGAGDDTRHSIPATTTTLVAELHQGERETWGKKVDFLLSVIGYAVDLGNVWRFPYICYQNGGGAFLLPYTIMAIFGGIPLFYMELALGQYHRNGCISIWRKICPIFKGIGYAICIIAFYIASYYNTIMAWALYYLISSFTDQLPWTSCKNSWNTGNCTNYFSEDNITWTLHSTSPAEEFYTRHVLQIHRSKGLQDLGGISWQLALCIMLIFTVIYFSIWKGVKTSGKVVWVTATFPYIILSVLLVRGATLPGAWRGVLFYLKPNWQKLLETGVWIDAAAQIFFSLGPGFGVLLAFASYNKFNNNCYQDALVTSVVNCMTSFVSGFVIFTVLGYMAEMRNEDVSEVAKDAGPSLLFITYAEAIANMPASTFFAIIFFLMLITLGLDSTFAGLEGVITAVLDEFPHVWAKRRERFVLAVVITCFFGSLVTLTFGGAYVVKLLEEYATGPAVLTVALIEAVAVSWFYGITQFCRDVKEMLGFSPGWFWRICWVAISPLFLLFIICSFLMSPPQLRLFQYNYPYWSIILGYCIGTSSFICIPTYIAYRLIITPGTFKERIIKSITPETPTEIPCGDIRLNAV
Sequence of Glucocorticoid (P04150 whole entry): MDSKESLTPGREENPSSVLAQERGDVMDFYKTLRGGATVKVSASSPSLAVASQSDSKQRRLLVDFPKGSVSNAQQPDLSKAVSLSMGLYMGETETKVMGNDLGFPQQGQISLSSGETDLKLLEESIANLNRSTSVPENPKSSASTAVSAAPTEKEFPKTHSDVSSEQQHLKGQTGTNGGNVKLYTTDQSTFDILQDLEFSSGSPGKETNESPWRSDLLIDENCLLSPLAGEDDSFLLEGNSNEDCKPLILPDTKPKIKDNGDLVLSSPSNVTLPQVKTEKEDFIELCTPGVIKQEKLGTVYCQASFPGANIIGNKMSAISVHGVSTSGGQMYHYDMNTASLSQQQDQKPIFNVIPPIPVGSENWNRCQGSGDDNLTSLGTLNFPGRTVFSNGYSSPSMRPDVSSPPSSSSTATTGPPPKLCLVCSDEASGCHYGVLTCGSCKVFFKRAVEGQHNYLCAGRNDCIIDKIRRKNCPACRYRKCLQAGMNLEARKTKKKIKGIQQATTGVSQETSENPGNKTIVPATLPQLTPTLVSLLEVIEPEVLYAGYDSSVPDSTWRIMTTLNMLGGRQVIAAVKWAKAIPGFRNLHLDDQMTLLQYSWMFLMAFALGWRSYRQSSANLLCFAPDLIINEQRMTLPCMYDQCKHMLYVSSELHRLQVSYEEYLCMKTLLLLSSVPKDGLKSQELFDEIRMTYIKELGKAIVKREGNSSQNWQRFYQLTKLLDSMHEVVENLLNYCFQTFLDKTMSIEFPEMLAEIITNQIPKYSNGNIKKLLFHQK
Sequence of Muscarinic M3 (P20309 whole entry): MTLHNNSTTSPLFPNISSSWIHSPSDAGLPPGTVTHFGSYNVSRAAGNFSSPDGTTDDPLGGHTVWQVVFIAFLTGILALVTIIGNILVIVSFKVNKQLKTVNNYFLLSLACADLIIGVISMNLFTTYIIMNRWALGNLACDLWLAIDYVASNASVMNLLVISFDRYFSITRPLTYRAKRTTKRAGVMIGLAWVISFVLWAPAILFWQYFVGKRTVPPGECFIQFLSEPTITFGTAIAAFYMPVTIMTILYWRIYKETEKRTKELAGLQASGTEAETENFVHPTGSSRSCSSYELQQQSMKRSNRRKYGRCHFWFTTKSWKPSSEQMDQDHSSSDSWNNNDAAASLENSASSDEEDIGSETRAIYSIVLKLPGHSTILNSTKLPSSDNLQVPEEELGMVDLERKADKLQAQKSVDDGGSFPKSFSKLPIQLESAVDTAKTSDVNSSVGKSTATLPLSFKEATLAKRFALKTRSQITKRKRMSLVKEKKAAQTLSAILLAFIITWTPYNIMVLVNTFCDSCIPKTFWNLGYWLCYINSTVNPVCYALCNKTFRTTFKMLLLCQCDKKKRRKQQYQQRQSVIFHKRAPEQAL
Sequence of GABAB1A (Q9UBS5 15-961): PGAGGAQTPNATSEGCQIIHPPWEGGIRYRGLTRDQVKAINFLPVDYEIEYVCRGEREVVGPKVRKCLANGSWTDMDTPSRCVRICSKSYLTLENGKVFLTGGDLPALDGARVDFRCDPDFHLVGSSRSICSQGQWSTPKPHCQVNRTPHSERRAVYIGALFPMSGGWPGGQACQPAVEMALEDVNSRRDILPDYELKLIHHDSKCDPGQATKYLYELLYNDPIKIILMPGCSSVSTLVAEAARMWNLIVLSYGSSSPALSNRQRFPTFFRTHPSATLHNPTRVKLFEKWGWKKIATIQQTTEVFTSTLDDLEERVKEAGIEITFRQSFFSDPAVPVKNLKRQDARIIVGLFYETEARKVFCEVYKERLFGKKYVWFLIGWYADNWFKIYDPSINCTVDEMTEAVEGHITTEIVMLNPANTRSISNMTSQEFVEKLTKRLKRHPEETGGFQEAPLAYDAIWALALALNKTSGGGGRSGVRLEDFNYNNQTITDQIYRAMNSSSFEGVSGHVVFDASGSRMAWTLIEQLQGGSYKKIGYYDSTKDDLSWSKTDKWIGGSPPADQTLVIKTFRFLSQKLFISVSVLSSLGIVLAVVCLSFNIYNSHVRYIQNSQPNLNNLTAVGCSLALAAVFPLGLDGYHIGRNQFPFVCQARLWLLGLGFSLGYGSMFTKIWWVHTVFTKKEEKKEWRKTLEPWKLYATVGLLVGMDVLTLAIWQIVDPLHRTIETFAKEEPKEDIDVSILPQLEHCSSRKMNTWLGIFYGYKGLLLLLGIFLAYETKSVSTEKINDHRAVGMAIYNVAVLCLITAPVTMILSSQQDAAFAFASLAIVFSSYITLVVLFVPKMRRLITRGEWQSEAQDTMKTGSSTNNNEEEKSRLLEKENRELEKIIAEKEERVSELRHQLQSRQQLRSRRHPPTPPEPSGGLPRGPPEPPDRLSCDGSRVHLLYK
Sequence of Endothelin ETB (P24530 27-442): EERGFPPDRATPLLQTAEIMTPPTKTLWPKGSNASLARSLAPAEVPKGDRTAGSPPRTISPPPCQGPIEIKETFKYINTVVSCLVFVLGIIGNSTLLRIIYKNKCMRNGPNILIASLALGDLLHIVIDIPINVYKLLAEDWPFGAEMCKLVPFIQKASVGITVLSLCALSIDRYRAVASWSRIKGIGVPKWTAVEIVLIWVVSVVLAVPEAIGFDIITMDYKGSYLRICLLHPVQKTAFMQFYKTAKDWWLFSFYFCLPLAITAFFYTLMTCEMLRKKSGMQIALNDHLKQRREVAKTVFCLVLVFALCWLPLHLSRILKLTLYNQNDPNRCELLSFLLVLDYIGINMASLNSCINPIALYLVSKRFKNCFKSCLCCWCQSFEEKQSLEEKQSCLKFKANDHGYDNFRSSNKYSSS
Sequence of Adrenergic β2 (P07550 whole entry): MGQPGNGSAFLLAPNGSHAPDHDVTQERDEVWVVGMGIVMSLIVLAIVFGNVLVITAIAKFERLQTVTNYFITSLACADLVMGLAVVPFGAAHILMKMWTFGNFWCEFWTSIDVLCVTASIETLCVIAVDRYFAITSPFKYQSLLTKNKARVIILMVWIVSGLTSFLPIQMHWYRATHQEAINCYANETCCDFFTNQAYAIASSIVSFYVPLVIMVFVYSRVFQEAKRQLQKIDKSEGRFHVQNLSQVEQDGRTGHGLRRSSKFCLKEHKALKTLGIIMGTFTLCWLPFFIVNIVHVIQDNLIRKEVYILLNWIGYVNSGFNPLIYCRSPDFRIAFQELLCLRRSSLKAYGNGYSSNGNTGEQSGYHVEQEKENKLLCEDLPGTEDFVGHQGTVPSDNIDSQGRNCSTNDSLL

SMILES | IC50 (BRAF V600E) | inhibition at 10 µM (Adenosine A2A) | inhibition at 10 µM (Adrenergic α2A) | inhibition at 10 µM (Adrenergic β2) | inhibition at 10 µM (Cannabinoid CB1) | inhibition at 10 µM (Endothelin ETB) | inhibition at 10 µM (GABAB1A) | inhibition at 10 µM (Glucocorticoid) | inhibition at 10 µM (Muscarinic M3) | Inhibitory rate (%), Potassium Channel [KATP] (Potassium Channel [KATP]) | inhibition at 10 µM [1] | IC50 (mTOR)
Nc1ccc(-c2ccc3ncc4c(=O)[nH]c(=O)n(-c5cccc(C(F)(F)F)c5)c4c3n2)cn1 [Compound 5, 9-(6-aminopyridin-3-yl)-1-(3-(trifluoromethyl)phenyl)pyrimido[5,4-c][1,5]naphthyridine-2,4(1H,3H)-dione] | > 10000 nM | 0% | 19% | 17% | 25% | 7% | 15% | -4% | 13% | 11% | 6% | –
O=c1[nH]c(=O)n(-c2cccc(C(F)(F)F)c2)c2c1cnc1ccc(-c3cnc4[nH]ccc4c3)nc12 [Compound 30, 9-(1H-pyrrolo[2,3-b]pyridin-5-yl)-1-(3-(trifluoromethyl)phenyl)pyrimido[5,4-c][1,5]naphthyridine-2,4(1H,3H)-dione] | – | – | – | – | – | – | – | – | – | – | – | 1.12 nM
